{
  "source": "paper PMC12304293",
  "about": "“Combatting virulent gut bacteria by inhibiting the biosynthesis of a two-component lanthipeptide toxin” (Nature Communications, 2025)",
  "key": {"[1]": {"format": "in vitro ADME", "settings": "100 µM, 25% human serum, 3 h, 37 °C", "method": "Similiarly, 9 was diluted to 100 µM in BHI that was inoculated with E. faecalis ATCC 29212 before incubating at 37 °C for 20 h. The overnight culture was flash frozen and lyophilized. The lyophilized samples were extracted with a volume of 90% methanol/10% water that was equal to the volume of the sample prior to lyophilization. The extract was assumed to have a concentration of 100 µM. […]\nHuman Serum + 9 Human Serum\nLog(Concentration (µM)) Log(Concentration(µM))\nSupplementary Figure 19. The stability of inhibitor 9 in the pres ence of human serum or C+ E. faecalis. A ) C y l A i nhibition activity of an extract of human s erum treated with 9 (100 μM) for 3 h at 37 ̊C. The resulting solution was used to determine the remaining activity of the inhibitor in a […]\nCylA activity assay. […] This experiment was perform ed on three different samples of inhibitor (n = 3). B) CylA inhibition activity of an extract of E. faecalis that was treated with 9 (100 μM) for 20 h at 37 ̊C (+9 +E. faecalis). The resulting solution was used to determine the remaining activity of the inhibitor in a CylA activity assay. An IC50 equal to 36 ± 3 nM was determin ed. Thes e values are higher than the IC50 for a fresh batch of […]\n(also on this page, place not known: determined. inhibition CylA These IC 50 presence serum This performed A) Non-linear fitting v i/vo IC 50. […]"}, "His6-CylA-27-412": {"molecular_target": "T1, His6-CylA-27-412 (Enterococcus faecalis, UniProt A0A2P6AWB8)", "T1 sequence (A0A2P6AWB8 27-412)": "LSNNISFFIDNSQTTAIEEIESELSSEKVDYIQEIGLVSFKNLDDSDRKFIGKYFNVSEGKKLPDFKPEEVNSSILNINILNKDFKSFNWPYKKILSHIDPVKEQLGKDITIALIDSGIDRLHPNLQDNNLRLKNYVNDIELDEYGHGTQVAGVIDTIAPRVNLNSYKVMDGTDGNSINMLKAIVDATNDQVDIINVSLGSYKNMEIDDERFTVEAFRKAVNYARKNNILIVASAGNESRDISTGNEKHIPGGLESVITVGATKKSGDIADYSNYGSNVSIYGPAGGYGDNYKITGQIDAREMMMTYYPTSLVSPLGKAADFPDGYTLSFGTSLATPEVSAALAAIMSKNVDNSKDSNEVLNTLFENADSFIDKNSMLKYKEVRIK", "assay": "Analytical size exclusion chromatography (pro-domain release)", "settings": "increasing inhibitor:CylA ratio", "method": "To gain more insight into this phenomenon, His6-CylA-27-412 that had undergone complete autolytic cleavage as determined by SDS-PAGE and that had been purified by size exclusion chromatography (SEC), was analyzed by analytical SEC (aSEC) in the presence of inhibitor 9. […] This assignment was supported by SDS-PAGE analysis of the eluted fractions (Supplementary Fig. 8). […] The SEC retention time data is inconsistent with CylA forming higher order oligomers, ruling out a DegP-like activation mechanism.\nSamples of His6-CylA-27-412 prepared as described in ‘Expression and purification of His6-CylA-27-412’ were diluted to a concentration of 50 μM and injected (20 μL injection volume) into an Agilent 1260 infinity analytical high-performance liquid chromatography system equipped with a Biozen™ 1.8 μm, 300 × 4.6 mm LC column pre-equilibriated with aSEC buffer (100 mM NaHPO4, 200 mM NaCl, pH = 7.4). Absorbance at 220 nm was monitored. A flow rate of 0.25 mL/min was used for all experiments. Retention time was correlated to protein size using a Gel Filtration Standard (Biorad) and samples of carbonic anhydrase isolated from bovine erythrocytes (Sigma Aldrich) and albumin isolated from bovine serum (Sigma Aldrich)."}, "[2]": {"system": "CylLS” in C+ E. faecalis ATCC 29212", "assay": "Detection of CylLS” from extracts of E. faecalis (LCMS)", "format": "cell-based, Enterococcus faecalis", "settings": "for Concentration CylLS (Figure 8C), replicates 1-4: ATCC 29212 overnight culture extract; for Concentration CylLS (Figure 8C), avg: n = 4", "method": "To determine if inhibitor 9 blocks the maturation of cytolysin in C+ E. faecalis, an LCMS method was developed to estimate the concentration of CylLS” in cell extracts. This method employed biosynthetically prepared ^15N,^13C-labeled CylLS” as an internal standard. Cultures of E. faecalis were treated with inhibitor 9 or vehicle then lyophilized and extracted with methanol.\nAn overnight culture of E. faecalis ATCC 29212 was diluted to an OD600 equal to 2.0 in BHI then further diluted 1000-fold in BHI. Inhibitor 9 or vehicle was added immediately after dilution and the inoculated samples were incubated with shaking at 37 °C for 20 h. Following incubation, a 400 µL aliquot of each sample was flash frozen and lyophilized. Each lyophilized sample was extracted with 400 µL of 90% methonal/10% water containing ^15N,^13C-labeled CylLS” (5.8 nM). Alternating rounds of water bath sonication and vortexing were used to homogenize the samples. Once homogenized, the samples were allowed to stand at room temperature for 1 h then were centrifuged at 16,000 g for 10 min, incubated at −20 °C for 1 h, and centrifuged at 16,000 g for 10 min. The supernatant was analyzed by LCMS using injection volumes of 5 µL. EIC corresponding to the exact masses of [M + 2H]^2+ and [M+Na+H]^2+ were integrated and the peak areas were added together giving the total CylLS” and internal standard responses. The concentration of CylLS” was estimated from the response ratio multiplied by the concentration of the internal standard."}},
  "note": "“And” between values parts separate entries of the source, which are not always exact repeats. Equal values may be shown once. Non-standard residues stand in square brackets, D forms with d. Residues, ends and D or L forms follow the SMILES beside them. *: point of attachment. boroGlu = O=C(O)CC[C@H](N*)B(O)O; Gly(cPr) = N[C@H](C(=O)O)C1CC1",
  "data": [
    {"molecule": "CC(=O)NCC(=O)N[C@@H](CC(=O)O)C(=O)N[C@H](C(=O)N[C@@H](CCC(N)=O)C(=O)N[C@@H](C)C(=O)N[C@@H](CCC(=O)O)B(O)O)C1CC1", "note": "[Compound 9] (Ac-GD[Gly(cPr)]QA-boroGlu)", "values": [
      {"measurement": "stability in human serum", "setting": "[1]", "result": "relatively good stability"},
      {"measurement": "conversion of CylA-96-412°His6-27-95 to the 12.1 min peak (pro-domain release), aSEC", "setting": "His6-CylA-27-412", "result": "transition appeared complete once a stoichiometric equivalent of inhibitor was added"},
      {"measurement": "quantities of CylLS” less than the untreated control", "setting": "[2]; 100 µM, on average", "result": 5.5, "unit": "fold"},
      {"measurement": "Concentration CylLS (Figure 8C), replicates 1-4", "setting": "[2]; Conc 1 uM of 9", "result": "1.79 nM and 1.72 nM and 1.6 nM and 1.8 nM"},
      {"measurement": "Concentration CylLS (Figure 8C), avg", "setting": "[2]; Conc 1 uM of 9", "result": 1.726, "unit": "nM"},
      {"measurement": "Concentration CylLS (Figure 8C), replicates 1-4", "setting": "[2]; Conc 10 uM of 9", "result": "2.34 nM and 2.21 nM and 2.19 nM and 2.55 nM"},
      {"measurement": "Concentration CylLS (Figure 8C), avg", "setting": "[2]; Conc 10 uM of 9", "result": 2.322, "unit": "nM"},
      {"measurement": "Concentration CylLS (Figure 8C), replicates 1-4", "setting": "[2]; Conc 100 uM of 9", "result": "0.272 nM and 0.227 nM and 0.262 nM and 0.247 nM"},
      {"measurement": "Concentration CylLS (Figure 8C), avg", "setting": "[2]; Conc 100 uM of 9", "result": 0.2518, "unit": "nM"}
    ]}
  ]
}
